The species entered for test [1] is Rattus norvegicus. Description: Intrinsic activity in rat isolated aorta. In kind it is functional.
For test [2], the species on record is Rattus norvegicus. The test can be described thus: Negative logarithm of the molar concentration required to relax rat aorta precontracted with 30 mM KCl by 50% of intrinsic activity. The conditions noted are these: for EC50: Rattus norvegicus, Aorta. In kind it is functional.

Where only a bound is given, the exact number is not on record here.

In turn, `C/N=C(/S)C1=CC2(CCCC2)Oc2ccc([N+](=O)[O-])cc21` came in with an IA in the test listed under Rattus norvegicus [1] of 77.7%. The EC50 in the test filed under Rattus norvegicus [2] was 0.0251 nM. As for `C/N=C(/S)C1=CC(C)(C)Oc2ccc([N+](=O)[O-])cc21`, the IA in the test listed under Rattus norvegicus [1] is on record as 63.5%.

Turning to `CCC1C=C(/C(S)=N\C)c2cc([N+](=O)[O-])ccc2O1` (stereo unspecified), the EC50 in the test listed under Rattus norvegicus [2] was above 31600 nM. `C/N=C(/S)C1=CC2(CCC2)Oc2ccc([N+](=O)[O-])cc21`: in the test filed under Rattus norvegicus [1], the IA is reported as 68.2%. The molecule further gave a 50% effective concentration (EC50) in the test filed under Rattus norvegicus [2] of 0.0209 nM. On the same counts, the results for `C/N=C(/S)C1=CC2(CCCCC2)Oc2ccc([N+](=O)[O-])cc21` are 77.6% and 0.112 nM. `C/N=C(/S)C1=CC(C)(C)Oc2ccc(C#N)cc21` showed an IA in the test listed under Rattus norvegicus [1] of 89%.

With `CCCC1(C)C=C(/C(S)=N\C)c2cc([N+](=O)[O-])ccc2O1` (stereo unspecified), the IA in the test listed under Rattus norvegicus [1] was found to be 62.6%. This molecule showed an EC50 in the test listed under Rattus norvegicus [2] of 0.017 nM.

`CCCCC1(C)C=C(/C(S)=N\C)c2cc([N+](=O)[O-])ccc2O1` (stereo unspecified): the IA in the test listed under Rattus norvegicus [1] was found to be 66.5%. This molecule showed an EC50 in the test listed under Rattus norvegicus [2] of 40.7 nM. For `CCC1(C)C=C(/C(S)=N\C)c2cc([N+](=O)[O-])ccc2O1` (stereo unspecified), in that order: 75.1% and 0.182 nM. `C/N=C(/S)C1=CC2(Oc3ccc([N+](=O)[O-])cc31)C1CC3CC(C1)CC2C3` (stereo unspecified): in the test listed under Rattus norvegicus [1], the IA is 87.9%. In the test listed under Rattus norvegicus [2], this molecule had an EC50 of 407 nM. For `C/N=C(/S)C1=CC2(CCCCCC2)Oc2ccc([N+](=O)[O-])cc21`, in that order: 61.5% and 47.9 nM. For `CCC1(CC)C=C(/C(S)=N\C)c2cc([N+](=O)[O-])ccc2O1`, in that order: 70.3% and 0.372 nM.

As for `C/N=C(/S)C1=CC(C(C)(C)C)Oc2ccc([N+](=O)[O-])cc21` (stereo unspecified), the IA in the test listed under Rattus norvegicus [1] is reported as 71.7%. Further, the EC50 in the test filed under Rattus norvegicus [2] was 0.398 nM. `C/N=C(/S)C1=C(O)C(C)(C)Oc2ccc([N+](=O)[O-])cc21` returned an IA in the test listed under Rattus norvegicus [1] of 93.9%. Besides, the EC50 in the test filed under Rattus norvegicus [2] is 1120 nM. As to `C/N=C(/S)C1c2cc([N+](=O)[O-])ccc2OC(C)(C)C1O` (stereo in doubt; cis), in the test filed under Rattus norvegicus [1], the IA came to 57.9%. The “Log EC50” value in the test filed under Rattus norvegicus [2] is reported as -6.96. Take `C/N=C(/S)C1c2cc([N+](=O)[O-])ccc2OC(C)(C)C1O` (stereo in doubt; trans): the IA in the test filed under Rattus norvegicus [1] was 73.2%. In addition, the “Log EC50” value in the test listed under Rattus norvegicus [2] is reported as -6.58. In turn, `CC1(C)Oc2ccc(C#N)cc2[C@@H](N2CCCC2=O)[C@@H]1O` [CROMAKALIM] returned an IA in the test filed under Rattus norvegicus [1] of 74.7%. Still for that read-out and setting: under `CC(N/C(=N\C#N)Nc1ccncc1)C(C)(C)C` (stereo unspecified) [PINACIDIL ANHYDROUS] stands 91.9%.

These data come from ChEMBL document CHEMBL1153254, “Vasorelaxant activity of 2-substituted 6-nitro-2H-1-benzopyran-4-carbothioamide K+ channel openers” (Bioorg Med Chem Lett, 1993).
